From patent US10961189B2, “Spiro-lactam NMDA receptor modulators and uses thereof” (Aptinyx Inc., priority 2016, dated 2021)
Read-outs that look alike come from different tables or passages of the source.

How the values were obtained:
IV pharmacokinetics = format: in vivo, Sprague Dawley rats; details: rat, normal saline (* in 5% NMP, 5% Solutol HS, 90% normal saline); for AUC(0-t) / half-life / C0 / Vd: Sprague-Dawley, in vivo, iv; for C0: read-out: C0; for Vd: read-out: Vss; for CI: intravenous 2 mg/kg
Description: The table below summarizes the results of the IV pharmacokinetics.

NMDAR2B = target: T1, NMDAR2B (Homo sapiens, UniProt Q13224); assay: [3H]MK-801 binding in NMDAR expressing HEK cell membranes (facilitation of NMDAR activation); format: biochemical; details: 50 μM glutamate; for EC50: read-out: B: log EC50 (converted); for Emax: 0.25 h, read-out: A: % maximal [3H]MK-801 binding relative to 1 mM glycine
T1 construct: expressed in transfected cells; host or cells: HEK cells (membrane extract)
T1 sequence (Q13224 27-1484, species assumed, other chains not shown): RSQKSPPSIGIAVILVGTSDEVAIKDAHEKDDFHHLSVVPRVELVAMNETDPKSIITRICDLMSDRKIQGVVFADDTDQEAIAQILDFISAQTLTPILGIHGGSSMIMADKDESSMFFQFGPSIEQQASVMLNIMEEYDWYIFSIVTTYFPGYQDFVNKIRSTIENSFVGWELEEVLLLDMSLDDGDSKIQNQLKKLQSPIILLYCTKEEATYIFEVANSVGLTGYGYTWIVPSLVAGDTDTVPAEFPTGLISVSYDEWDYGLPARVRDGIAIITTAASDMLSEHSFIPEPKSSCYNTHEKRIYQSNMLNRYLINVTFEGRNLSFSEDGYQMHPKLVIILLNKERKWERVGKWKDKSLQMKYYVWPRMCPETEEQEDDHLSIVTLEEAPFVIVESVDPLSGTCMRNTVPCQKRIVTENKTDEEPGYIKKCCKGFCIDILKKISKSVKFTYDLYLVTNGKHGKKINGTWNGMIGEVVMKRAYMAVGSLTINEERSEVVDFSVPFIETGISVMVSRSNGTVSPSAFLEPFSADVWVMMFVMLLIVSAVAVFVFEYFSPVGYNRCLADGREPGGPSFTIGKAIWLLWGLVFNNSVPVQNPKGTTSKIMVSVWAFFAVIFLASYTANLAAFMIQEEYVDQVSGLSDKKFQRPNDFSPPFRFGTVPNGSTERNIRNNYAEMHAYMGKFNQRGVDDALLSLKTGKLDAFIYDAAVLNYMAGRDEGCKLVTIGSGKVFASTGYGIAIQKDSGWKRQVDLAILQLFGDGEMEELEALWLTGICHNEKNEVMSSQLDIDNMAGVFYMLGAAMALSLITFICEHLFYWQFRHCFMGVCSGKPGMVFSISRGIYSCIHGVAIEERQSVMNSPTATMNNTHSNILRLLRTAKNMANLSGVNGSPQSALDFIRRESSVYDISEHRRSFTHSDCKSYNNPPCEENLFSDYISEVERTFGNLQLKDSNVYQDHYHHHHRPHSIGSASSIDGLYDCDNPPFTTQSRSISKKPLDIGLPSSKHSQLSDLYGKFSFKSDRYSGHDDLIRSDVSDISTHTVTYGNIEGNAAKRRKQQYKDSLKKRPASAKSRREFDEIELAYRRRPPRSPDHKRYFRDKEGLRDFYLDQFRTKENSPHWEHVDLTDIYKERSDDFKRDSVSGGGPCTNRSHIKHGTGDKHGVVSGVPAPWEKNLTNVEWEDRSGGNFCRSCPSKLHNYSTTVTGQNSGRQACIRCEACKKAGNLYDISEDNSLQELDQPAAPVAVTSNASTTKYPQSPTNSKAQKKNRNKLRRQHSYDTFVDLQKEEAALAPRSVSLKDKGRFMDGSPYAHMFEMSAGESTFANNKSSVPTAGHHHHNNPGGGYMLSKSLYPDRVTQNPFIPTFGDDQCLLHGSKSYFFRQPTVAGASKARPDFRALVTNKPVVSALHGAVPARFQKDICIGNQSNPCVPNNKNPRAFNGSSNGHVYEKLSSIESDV
Method: (§1) Assays were conducted as described by Moskal et al., “GLYX-13: a monoclonal antibody-derived peptide that acts as an N-methyl-D-aspartate receptor modulator,” Neuropharmacology, 49, 1077-87, 2005. These studies were designed to determine if the test compounds act to facilitate NMDAR activation in NMDAR2A, NMDAR2B, NMDAR2C or NMDAR2D expressing HEK cell membranes as measured by increases in [^3H]MK-801 binding.
(§2) In the assay, 300 μg of NMDAR expressing HEK cell membrane extract protein was preincubated for 15 minutes at 25° C. in the presence of saturating concentrations of glutamate (50 μM) and varying concentrations of test compound (1×10^15M−1×10^−7M), or 1 mM glycine. Following the addition of 0.3 μCi of [^3H]MK-801 (22.5 Ci/mmol), reactions were again incubated for 15 minutes at 25° C. (nonequilibrium conditions). Bound and free [^3H]MK-801 were separated via rapid filtration using a Brandel apparatus.
(§3) In analyzing the data, the DPM (disintegrations per minute) of [^3H]MK-801 remaining on the filter were measured for each concentration of test compound or for 1 mM glycine. The DPM values for each concentration of a ligand (N=2) were averaged. The baseline value was determined from the best fit curve of the DPM values modeled using the GraphPad program and the log(agonist) vs. response (three parameters) algorithm was then subtracted from all points in the dataset. The % maximal [^3H]MK-801 binding was then calculated relative to that of 1 mM glycine: all baseline subtracted DPM values were divided by the average value for 1 mM glycine. The EC50 and % maximal activity were then obtained from the best fit curve of the % maximal [^3H]MK-801 binding data modelled using the GraphPad program and the log(agonist) vs. response (three parameters) algorithm.
(§4) The tables below summarize the results for the wild type NMDAR agonists NMDAR2A, NMDAR2B, NMDAR2C, and NMDAR2D, and whether the compound is not an agonist (−), is an agonist (+), or is a strong agonist (++), where column A is based on the % maximal [^3H]MK-801 binding relative to 1 mM glycine (−=0; <100%=+; and >100%=++); and column B is based on log EC50 values (0=−; ≥1×10^−9 M (e.g., −8)=+; and <1×10^−9 M (e.g., −10)=++).

NMDAR2A = target: T2, NMDAR2A (Homo sapiens, UniProt Q12879); assay: as above; format: biochemical; details: 50 μM glutamate; for EC50: read-out: B: log EC50 (converted); for Emax: 0.25 h, read-out: A: % maximal [3H]MK-801 binding relative to 1 mM glycine
T2 construct: expressed in transfected cells; host or cells: HEK cells (membrane extract)
T2 sequence (Q12879 23-1464, species assumed, other chains not shown): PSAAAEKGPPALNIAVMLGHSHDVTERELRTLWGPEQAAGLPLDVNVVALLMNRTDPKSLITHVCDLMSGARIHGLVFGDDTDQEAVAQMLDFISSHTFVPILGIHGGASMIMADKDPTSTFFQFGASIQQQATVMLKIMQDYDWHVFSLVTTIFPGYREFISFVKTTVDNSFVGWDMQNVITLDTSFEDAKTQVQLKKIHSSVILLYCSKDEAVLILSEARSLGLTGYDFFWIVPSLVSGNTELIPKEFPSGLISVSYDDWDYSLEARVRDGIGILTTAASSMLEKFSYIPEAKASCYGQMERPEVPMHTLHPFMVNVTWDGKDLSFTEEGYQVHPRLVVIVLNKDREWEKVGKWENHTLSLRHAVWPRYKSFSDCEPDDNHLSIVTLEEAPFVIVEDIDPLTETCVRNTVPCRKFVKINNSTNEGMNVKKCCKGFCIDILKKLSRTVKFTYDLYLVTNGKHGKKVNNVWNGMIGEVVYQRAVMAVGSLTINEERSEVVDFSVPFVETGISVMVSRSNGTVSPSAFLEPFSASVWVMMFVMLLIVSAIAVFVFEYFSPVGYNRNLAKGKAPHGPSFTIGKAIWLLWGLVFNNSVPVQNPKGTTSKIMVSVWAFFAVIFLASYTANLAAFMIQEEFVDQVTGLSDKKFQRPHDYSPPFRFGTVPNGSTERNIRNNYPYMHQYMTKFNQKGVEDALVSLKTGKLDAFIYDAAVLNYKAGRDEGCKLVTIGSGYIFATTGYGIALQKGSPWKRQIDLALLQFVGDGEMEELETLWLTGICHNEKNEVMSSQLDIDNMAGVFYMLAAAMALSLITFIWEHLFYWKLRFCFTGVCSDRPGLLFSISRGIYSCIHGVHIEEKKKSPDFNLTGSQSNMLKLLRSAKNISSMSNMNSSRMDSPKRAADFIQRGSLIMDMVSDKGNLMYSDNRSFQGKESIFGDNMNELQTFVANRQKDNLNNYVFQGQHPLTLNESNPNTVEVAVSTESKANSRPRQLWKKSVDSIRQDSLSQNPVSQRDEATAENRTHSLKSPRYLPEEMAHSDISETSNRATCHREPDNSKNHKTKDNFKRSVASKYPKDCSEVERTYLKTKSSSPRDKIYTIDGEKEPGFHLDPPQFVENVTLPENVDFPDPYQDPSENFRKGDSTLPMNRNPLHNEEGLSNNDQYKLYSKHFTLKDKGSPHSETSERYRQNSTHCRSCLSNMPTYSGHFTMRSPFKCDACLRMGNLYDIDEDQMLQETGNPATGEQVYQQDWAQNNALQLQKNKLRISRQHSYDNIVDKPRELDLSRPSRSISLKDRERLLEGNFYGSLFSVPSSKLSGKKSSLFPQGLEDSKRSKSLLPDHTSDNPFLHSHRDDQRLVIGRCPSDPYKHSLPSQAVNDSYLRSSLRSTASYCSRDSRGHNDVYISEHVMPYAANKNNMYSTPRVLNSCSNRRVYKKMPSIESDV
Method: as §1, §2, §3, §4

[1] = oral pharmacokinetics (plasma, brain, CSF); format: in vivo, Sprague Dawley rats; details: rat, per os 10 mg/kg; for Tmax: normal saline (* in 5% NMP, 5% Solutol HS, 90% normal saline)
Method: In another experiment, Sprague Dawley rats were dosed per os using a normal saline formulation containing 10 mg/kg of the compounds identified in the table below (except for the compounds marked with an asterisk (“*”) that were delivered in 5% NMP, 5% Solutol® HS and 90% normal saline formulation). Plasma, brain, and CSF samples were analyzed at various time points over a 24 hour period.

rats = assay: positive emotional learning (PEL) test, 50-kHz ultrasonic vocalizations; format: in vivo, rat; details: PO, dose .1 mg/kg, one hour after administration
Method: Experiments were conducted as described in Burgdorf et al., “The effect of selective breeding for differential rates of 50-kHz ultrasonic vocalizations on emotional behavior in rats,” Devel. Psychobiol., 51:34-46 (2009). Rat 50-kHz ultrasonic vocalization (hedonic USVs) is a validated model for the study of positive affective state and is best elicited by rough-and-tumble play.
The PEL assay measures the acquisition of positive (hedonic) 50-kHz ultrasonic vocalizations (USVs) to a social stimulus, heterospecific rough and tumble play stimulation. Heterospecific rough-and-tumble play stimulation was administered by the experimenter's right hand. One hour after administration of test compound or vehicle negative control (0.5% sodium carboxymethyl cellulose in […] sterile saline), animals received 3 min of heterospecific rough-and-tumble play that consisted of alternating 15 sec blocks of heterospecific play and 15 sec of no-stimulation. High frequency ultrasonic vocalizations (USVs) were recorded and analyzed by sonogram with Avasoft SASlab Pro (Germany) as previously described by Burgdorf et al., “Positive emotional learning is regulated in the medial prefrontal cortex by GluN2B-containing NMDA receptors,” Neuroscience, 192:515-523 (2011). Frequency modulated 50-kHz USVs that occurred during each of the no-stimulation periods were quantified to measure PEL. Animals were not habituated to play stimulation before testing. Positive emotional learning was measured during the conditioned stimulus (CS) trials preceding the tickle unconditioned stimulus (UCS) trials. Animals received 15 second trials consisting of 6 CS and 6 UCS trials each (3 min total).
The table below summarizes the findings. As each experiment includes its own vehicle group, an example (typical) vehicle score is shown. Max effect (mean number of 50 kHz USVs per 15 seconds) is reported as ^: <6.0; *: 6-10.9; **: 11-16.9; ***: 17-22.

Sprague Dawley rats [2] = assay: Porsolt forced swim test; format: in vivo, rat; details: 0.1 mg/kg
Method: A non-clinical in vivo pharmacology study (Porsolt assay) was performed to measure antidepressant-like effects. A negative control (0.5% sodium carboxymethyl cellulose in 0.9% sterile saline vehicle) and a positive control (fluoxetine) are shown for comparison against test compound. The study allowed for the evaluation of the effects of each compound on the Porsolt forced swim test as assessed by the rats' response (reduced floating time) during a 5-minute swimming test.
(§5) Male 2-3 month old Sprague Dawley rats were used (Harlan, Indianapolis, Ind.). Rats were housed in Lucite cages with aspen wood chip bedding, maintained on a 12:12 light:dark cycle (lights on at 5 AM), and given ad libitum access to Purina lab chow (USA) and tap water throughout the study.
The Porsolt forced swim test adapted for use in rats was performed as described by Burgdorf et al., (The long-lasting antidepressant effects of rapastinel (GLYX-13) are associated with a metaplasticity process in the medial prefrontal cortex and hippocampus. Neuroscience 308:202-211, 2015). Animals were placed in a 46 cm tall×20 cm in diameter clear glass tube filled to 30 cm with tap water (23±1° C.) for 15 min on the first day (habituation) and 5 min on the subsequent test day. Positive control fluoxetine was dosed 3 times (24 h, 5 h and 1 h) prior to testing. Animals were tested 1 h or 24 h post-dosing with the test compounds or vehicle. Animals received a 15 min habituation session 1 day before the 5 min test. A subset of compounds tested at 1 h post-dosing were retested at 1 wk post-dosing in the same sets of animals. Water was changed after every other animal. Animals were videotaped, and floating time as defined as the minimal amount of effort required to keep the animals head above water was scored offline by a blinded experimenter with high inter-rater reliability (Pearson's r>0.9).
Each compound tested at dose level shown. Significance vs. vehicle group for each experiment is marked. […] A compound marked “No” was not statistically significant from vehicle. Data was averaged for test compound and vehicle groups (N approximately 8 per group) and the percent reduction in floating for group treated with test compound relative to group treated with vehicle is shown.

Sprague Dawley rats [3] = assay: Bennett model of mechanical analgesia (sciatic nerve chronic constriction, paw withdrawal threshold); format: in vivo, rat; details: 10 mg/kg PO;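 note: log paw withdrawal threshold scaled from vehicle group mean (0%) to naive 15 g value (100%)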
Method: The Bennett model of mechanical analgesia is used to assess the analgesic effects of compounds as measured by paw withdrawal threshold. Bennett GJ, Xie YK, “A peripheral mononeuropathy in rat that produces disorders of pain sensation like those seen in man,” Pain 33:87-107, 1988. […] Vehicle animals receive the surgery and then receive vehicle rather than test compound. Animals were tested 1 hr, 24 h and 1 wk post-test compound or vehicle administration.
as §5, with “used. Harlan was the supplier for all studies.” for “used (Harlan, Indianapolis, Ind.).”
Rats were anesthetized using inhaled isoflurane (2.5%). Sciatic nerve chronic constriction nerve injury surgery was performed as previously described (Bennett and Xie, 1988). An incision (˜1.5 cm in length) was made with a scalpel blade dorsally through skin on the right hind limb, parallel and posterior to femur. Using a small pointed hemostat, the biceps femoris and gluteus superficialis muscles were separated. Using curved blunt forceps, the common sciatic nerve was isolated and exposed. For the mechanical analgesia studies, the whole sciatic nerve was ligated. Using hemostats/forceps and chromic gut (5-0), the nerve was loosely ligated with a square knot; 3 ligatures, 1 mm apart were placed on the nerve. […] Testing occurred approximately 2 weeks post-surgery.
During testing, rats were acclimated to the surface of a suspended wire mesh grid (1 cm×1 cm, with the wire being 0.3 cm in diameter) for 15-20 min. Starting from the smallest, each Von Frey filament was pressed perpendicularly to the plantar surface of the affected (ipsilateral) hind paw until slightly bent and then held for 6 second. If an obvious hind paw withdrawal or a flinching behavior immediately after the withdrawal of the filament was not observed, the next larger filament was used in the same manner. In case of a response, a lower filament was used. This was repeated until six responses were collected.
For all studies, animals were baselined prior to study start to test for allodynia (defined as a paw withdrawal threshold under 5). A subset of animals was tested with gabapentin (150 mg/kg, PO) to ensure at least 50% analgesia. Once it was confirmed animals were ready for study initiation, animals were balanced across groups. All study investigators were blind to treatment conditions. Animals were dosed with 0.1, 1 or 10 mg/kg of test compound via oral gavage (PO), control sets of animals were dosed with gabapentin (150 mg/kg, PO) or vehicle (0.5% Na-CMC in 0.9% sterile saline, PO). Testing occurred 1 h post-dosing with animals retested 24 hrs and 1 week post-dosing. The percent analgesia calculations for each animal were made using the following equation: % analgesia=[(log(x)−y)/((log (z)−y)]*100, where x=the paw withdrawal threshold for the drug-treated animal in grams, y=the average of the log(x) values for the vehicle treated group, and z=the paw withdrawal threshold for naïve animals in grams (historical value of 15 used).
The results are shown in the table below where the percentage of analgesia is measured at 1 hour, 24 hours, and 1 week after compound administration. Since each study had its own gabapentin control group, an example gabapentin control value is shown.

[4] = Sprague-Dawley, plasma, po, 10 mg/kg
[5] = Sprague-Dawley, plasma, po, 10 mg/kg, read-out: Tmax
[6] = Sprague-Dawley, plasma, po, 10 mg/kg, plasma, read-out: Cmax

Row | SMILES | AUC(0-t) (IV pharmacokinetics; 2 mg/kg) | half-life (IV pharmacokinetics; 2 mg/kg) | C0 (IV pharmacokinetics; 2 mg/kg) | Vd (IV pharmacokinetics; 2 mg/kg) | EC50 (NMDAR2B) | EC50 (NMDAR2A) | CSF Cmax [1] | Max Effect (mean number of 50 kHz USVs per 15 seconds) (rats) | Emax (NMDAR2B) | Emax (NMDAR2A) | Tmax [1, 5] | Cmax [1, 6] | other results
1 | C[C@@H](O)[C@H](NC1CCC2(CC1)CNC2=O)C(N)=O (single isomer, unassigned) [AQ] | 2290 ng·h/mL | 3.84 h | 3990 ng/mL | 1.22 L/kg | < 1 nM | ≥ 1 nM | 65.84 ng/mL | ** (**: 11-16.9) |  |  |  |  | CI (IV pharmacokinetics; 2 mg/kg): 14.64 mL/min/kg; A: % maximal [3H]MK-801 binding relative to 1 mM glycine (NMDAR2B): + (<100%=+); A: % maximal [3H]MK-801 binding relative to 1 mM glycine (NMDAR2A): + (<100%=+); % F [1]: 16%; Brain Cmax ([1]; brain): 29.91 ng/mL; Tmax [1]: 1 h; AUClast ([1]; plasma): 1805.63 ng·h/mL; Cmax ([1]; plasma): 499.27 ng/mL
2 | O=C1NCC12CCCCC2 [Compound AB, 2-azaspiro[3.5]nonan-1-one] | 2650 ng·h/mL | 3.42 h | 2050 ng/mL | 1.13 L/kg | < 1 nM | ≥ 1 nM |  |  | < 100% | < 100% | 0.42 h | 7690 ng/mL | % reduction in float time (Sprague Dawley rats [2]; 1 h post-dose): 73.2%; Significance vs. vehicle (Sprague Dawley rats [2]; 1 h post-dose): Yes (statistically significant (p<=0.05) from vehicle at dose level shown); % reduction in float time (Sprague Dawley rats [2]; 24 h post-dose): 79.90%; Significance vs. vehicle (Sprague Dawley rats [2]; 24 h post-dose): Yes (statistically significant (p<=0.05) from vehicle at dose level shown); CI (IV pharmacokinetics): 16.1 mL/min/kg; AUC(0-t) [1, 4]: 11600 ng·h/mL; bioavailability [1, 4]: 88%
3 | C[C@@H](O)[C@@H](C(N)=O)N1CC2(CCC(F)(F)CC2)C1=O [Compound AO, (2S,3R)-2-(7,7-difluoro-1-oxo-2-azaspiro[3.5]nonan-2-yl)-3-hydroxybutanamide] |  |  |  |  | < 1 nM |  | 1676.3 ng/mL | * (*: 6-10.9) | < 100% | 0% | 1 h | 7310 ng/mL | % analgesia (Sprague Dawley rats [3]; 1 wk): 18.2%; % analgesia (Sprague Dawley rats [3]; 1 h): 23.7%; % analgesia (Sprague Dawley rats [3]; 24 h): 7.5%
